What is called IC50 is the concentration that inhibits the measured activity by half.

Data on three molecules can be found in patent US20260102501A1, “ANTI-CANCER NUCLEAR HORMONE RECEPTOR-TARGETING COMPOUNDS” (Nuvation Bio Inc., priority 2022, published 2026).

SMILES strings stand for the structures. Substitutions are numbered along the chain they refer to. Where two headings read alike, the source gives them in different places.

The target of assay [1] is T1, ligand binding domain of the glucocorticoid receptor (HEK293 cells stably expressing) (Homo sapiens, UniProt P04150).
T1 sequence (P04150 524-758 limits assumed): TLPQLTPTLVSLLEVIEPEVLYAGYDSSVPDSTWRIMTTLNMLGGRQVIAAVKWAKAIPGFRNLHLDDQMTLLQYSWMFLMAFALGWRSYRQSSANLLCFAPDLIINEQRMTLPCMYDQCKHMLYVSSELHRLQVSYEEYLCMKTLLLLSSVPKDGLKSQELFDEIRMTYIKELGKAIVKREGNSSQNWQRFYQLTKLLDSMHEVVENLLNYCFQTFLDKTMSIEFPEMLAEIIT
The assay is described as follows: GR antagonism assay (luciferase reporter). On the technique in general: Reporter assays use an easily measured gene product as a stand-in for the process of interest.

The subject of a further assay is LNCap cells. The assay is described as follows: Cell viability assay (CellTiterGlo). In kind it is cell-based. The note with it: Homo sapiens, 144 h. For orientation: Cellular ATP, detected with luciferase, serves as a proxy for viable cell number.
A further assay relates to IEC6 cells. Kind of assay: Cell viability assay (CellTiterGlo). The conditions noted are these: Rattus norvegicus, IEC-6, 144 h, read-out: IEC-6 (IC50, nM).
For the next assay, the system named is T47D cells. The assay is described as follows: Cell viability assay (CellTiterGlo). The assay is classed as cell-based. The note with it: Homo sapiens, 144 h, read-out: T47D (IC50, nM).
The target of assay [2] is T2, GR (cytosol from IM-9 cells) (Homo sapiens, UniProt P04150).
T2 sequence (P04150 1-777): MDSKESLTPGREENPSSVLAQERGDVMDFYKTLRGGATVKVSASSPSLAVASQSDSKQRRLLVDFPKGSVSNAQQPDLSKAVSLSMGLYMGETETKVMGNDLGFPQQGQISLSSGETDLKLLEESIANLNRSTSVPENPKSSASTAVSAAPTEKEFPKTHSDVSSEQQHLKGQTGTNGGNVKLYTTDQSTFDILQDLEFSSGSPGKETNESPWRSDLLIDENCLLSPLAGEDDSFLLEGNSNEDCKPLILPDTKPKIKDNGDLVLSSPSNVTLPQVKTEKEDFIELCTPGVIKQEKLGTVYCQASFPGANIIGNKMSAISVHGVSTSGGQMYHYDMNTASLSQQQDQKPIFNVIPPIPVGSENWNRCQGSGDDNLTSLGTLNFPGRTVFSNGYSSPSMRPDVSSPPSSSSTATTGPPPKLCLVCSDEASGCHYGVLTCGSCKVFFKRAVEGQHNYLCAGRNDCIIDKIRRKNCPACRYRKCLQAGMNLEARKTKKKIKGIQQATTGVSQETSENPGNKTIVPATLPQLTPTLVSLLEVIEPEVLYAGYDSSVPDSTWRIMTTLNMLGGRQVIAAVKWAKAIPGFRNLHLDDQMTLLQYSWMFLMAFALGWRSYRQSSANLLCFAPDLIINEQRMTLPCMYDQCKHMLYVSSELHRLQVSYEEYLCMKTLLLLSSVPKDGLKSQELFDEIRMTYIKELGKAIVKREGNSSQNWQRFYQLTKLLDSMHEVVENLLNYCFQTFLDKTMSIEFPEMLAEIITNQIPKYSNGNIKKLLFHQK
The assay is described as follows: GR binding assay (3H-Dexamethasone displacement).

For assay [3], the target named is T3, full-length androgen receptor (HEK293 cells stably expressing) (Homo sapiens, UniProt P10275).
T3 sequence (P10275 1-920): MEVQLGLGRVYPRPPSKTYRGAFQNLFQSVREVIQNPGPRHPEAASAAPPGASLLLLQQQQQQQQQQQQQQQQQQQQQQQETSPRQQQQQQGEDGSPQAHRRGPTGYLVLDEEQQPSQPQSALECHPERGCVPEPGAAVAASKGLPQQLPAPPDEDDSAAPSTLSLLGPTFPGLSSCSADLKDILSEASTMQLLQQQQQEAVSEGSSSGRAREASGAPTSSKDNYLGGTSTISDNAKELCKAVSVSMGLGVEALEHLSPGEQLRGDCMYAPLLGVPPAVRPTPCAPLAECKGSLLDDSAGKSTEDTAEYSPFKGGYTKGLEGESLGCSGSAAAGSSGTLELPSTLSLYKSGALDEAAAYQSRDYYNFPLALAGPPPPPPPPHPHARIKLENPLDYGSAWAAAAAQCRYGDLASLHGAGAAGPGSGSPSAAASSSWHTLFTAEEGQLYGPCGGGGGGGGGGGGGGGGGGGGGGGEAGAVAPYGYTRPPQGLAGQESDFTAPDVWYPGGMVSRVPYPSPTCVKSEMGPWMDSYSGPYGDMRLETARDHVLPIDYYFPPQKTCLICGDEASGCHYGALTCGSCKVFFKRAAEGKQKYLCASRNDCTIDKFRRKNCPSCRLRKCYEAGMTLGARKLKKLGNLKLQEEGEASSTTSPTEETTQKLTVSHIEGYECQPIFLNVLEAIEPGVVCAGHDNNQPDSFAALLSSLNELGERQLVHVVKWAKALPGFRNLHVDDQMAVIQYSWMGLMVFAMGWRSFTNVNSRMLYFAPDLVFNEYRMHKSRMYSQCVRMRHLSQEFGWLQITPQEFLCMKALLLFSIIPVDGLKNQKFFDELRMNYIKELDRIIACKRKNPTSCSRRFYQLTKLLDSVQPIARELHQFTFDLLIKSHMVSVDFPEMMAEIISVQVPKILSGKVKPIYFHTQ
Kind of assay: AR antagonism assay (luciferase reporter).

A further assay deals with 22Rv1 cells. The assay is described as follows: Cell viability assay (CellTiterGlo). The conditions noted are these: Homo sapiens, 22Rv1, 144 h, read-out: 22RV1 (IC50, nM).
For assay [4], the target named is T4, Progesterone PR-B receptors from human breast carcinoma T47D cells (Homo sapiens, UniProt P06401).
T4 sequence (P06401 1-933): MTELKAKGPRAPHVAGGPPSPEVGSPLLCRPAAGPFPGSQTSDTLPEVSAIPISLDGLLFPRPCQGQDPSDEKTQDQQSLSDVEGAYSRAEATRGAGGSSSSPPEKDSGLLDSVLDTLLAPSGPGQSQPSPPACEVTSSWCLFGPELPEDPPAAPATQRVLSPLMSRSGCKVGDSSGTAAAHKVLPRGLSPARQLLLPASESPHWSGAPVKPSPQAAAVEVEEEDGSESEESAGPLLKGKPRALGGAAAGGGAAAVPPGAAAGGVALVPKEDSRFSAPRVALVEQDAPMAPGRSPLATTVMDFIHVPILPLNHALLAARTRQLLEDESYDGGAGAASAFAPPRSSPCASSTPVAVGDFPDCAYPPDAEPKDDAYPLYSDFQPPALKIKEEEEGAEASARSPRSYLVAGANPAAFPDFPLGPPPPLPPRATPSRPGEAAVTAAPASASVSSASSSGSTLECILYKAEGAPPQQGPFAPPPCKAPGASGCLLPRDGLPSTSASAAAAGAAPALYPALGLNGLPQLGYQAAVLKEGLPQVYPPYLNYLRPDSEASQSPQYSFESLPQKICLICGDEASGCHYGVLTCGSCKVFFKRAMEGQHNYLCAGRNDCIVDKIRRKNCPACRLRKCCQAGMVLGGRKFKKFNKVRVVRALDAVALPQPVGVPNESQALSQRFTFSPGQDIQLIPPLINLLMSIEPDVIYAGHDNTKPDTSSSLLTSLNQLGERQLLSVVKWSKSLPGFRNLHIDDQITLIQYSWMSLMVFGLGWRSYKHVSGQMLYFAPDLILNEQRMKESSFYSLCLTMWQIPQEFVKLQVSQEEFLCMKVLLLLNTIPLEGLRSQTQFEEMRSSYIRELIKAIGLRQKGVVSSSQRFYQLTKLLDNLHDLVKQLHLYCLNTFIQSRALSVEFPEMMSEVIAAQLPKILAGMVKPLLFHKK
The assay is described as follows: PR binding assay ([3H] Progesterone displacement).

In assay [5] the target is T5, AR (cytosol from LnCaP cells) (Homo sapiens, UniProt P10275, T878A).
T5 sequence (P10275 1-920 T878A): T3 sequence (P10275 1-920) with T878A
Kind of assay: AR binding assay (3H-R1881 displacement).
Description: The plate was then centrifuged at 3000 rpm for 30 minutes at 4° C.

Setting [6] is: 6 days incubation, CellTiterGlo, read-out: LNCap (IC50).

`CC#C[C@]1(O)CC[C@H]2[C@@H]3CCC4=CC(=O)CCC4=C3[C@@H](c3ccc(N(C)CCCCCCN4CCN(C(=O)Oc5ccc6nc7c(cc6c5CN(C)C)Cn5c-7cc6c(c5=O)COC(=O)[C@]6(O)CC)CC4)cc3)C[C@@]21C` [Compound 29, (S)-10-((Dimethylamino)methyl)-4-ethyl-4-hydroxy-3,14-dioxo-3,4,12,14-tetrahydro-1H-pyrano[3′,4′:6,7]indolizino[1,2-b]quinolin-9-yl 4-(6-((4-((8S,11R,13S,14S,17S)-17-hydroxy-13-methyl-3-oxo-17-(prop-1-yn-1-yl)-2,3,6,7,8,11,12,13,14,15,16,17-dodecahydro-1H-cyclopenta[a]phenanthren-11-yl)phenyl)(methyl)amino)hexyl)piperazine-1-carboxylate]: the IC50 in [1] was less than 10 nM; with LNCap cells (read-out: LNCap (IC50, nM)), 10 to 100 nM; in the assay with IEC6 cells it was 101 to 1000 nM; with T47D cells, 10 to 100 nM; in [2] it was less than 10 nM.

Turning to `CC[C@@]1(O)C(=O)OCc2c1cc1n(c2=O)Cc2c-1nc1cc(F)c(C)c3c1c2[C@@H](NC(=O)COC(=O)N1CCN(CCCCCCN(C)c2ccc([C@H]4C[C@@]5(C)[C@@H](CC[C@]5(OC(C)=O)C(C)=O)[C@@H]5CCC6=CC(=O)CCC6=C54)cc2)CC1)CC3` [Compound 42, 2-(((1S,9S)-9-ethyl-5-fluoro-9-hydroxy-4-methyl-10,13-dioxo-2,3,9,10,13,15-hexahydro-1H,12H-benzo[de]pyrano[3′,4′:6,7]indolizino[1,2-b]quinolin-1-yl)amino)-2-oxoethyl 4-(6-((4-((8S,11R,13S,14S,17R)-17-acetoxy-17-acetyl-13-methyl-3-oxo-2,3,6,7,8,11,12,13,14,15,16,17-dodecahydro-1H-cyclopenta[a]phenanthren-11-yl)phenyl)(methyl)amino)hexyl)piperazine-1-carboxylate], the IC50 is 101 to 1000 nM in assay [3]; 10 to 100 nM in assay [1]; 101 to 1000 nM in the assay on 22Rv1 cells; 101 to 1000 nM with LNCap cells (setting [6]); less than 10 nM in assay [4]; greater than 1000 nM in the assay with IEC6 cells. In addition, the IC50 in assay [5] lay within 10 to 100 nM.

Consider `CC[C@@]1(O)C(=O)OCc2c1cc1n(c2=O)Cc2cc3c(CN4CCN(CCCCCCC5CCN(c6ccc(C(=O)N[C@H]7CC[C@H](N(C)c8ccc(C#N)c(Cl)c8)CC7)nn6)CC5)CC4)c(O)ccc3nc2-1` [Compound 56, N-((1r,4r)-4-((3-chloro-4-cyanophenyl)(methyl)amino)cyclohexyl)-6-(4-(6-(4-(((S)-4-ethyl-4,9-dihydroxy-3,14-dioxo-3,4,12,14-tetrahydro-1H-pyrano[3′,4′:6,7]indolizino[1,2-b]quinolin-10-yl)methyl)piperazin-1-yl)hexyl)piperidin-1-yl)pyridazine-3-carboxamide], for which the IC50 in assay [3] was in the range of 101 to 1000 nM; in the assay on 22Rv1 cells, 10 to 100 nM; with LNCap cells (setting [6]) it was 10 to 100 nM; in assay [4] it was 10 to 100 nM; in the assay on IEC6 cells, 101 to 1000 nM; in assay [5] it was 101 to 1000 nM.
